HELM strings list units from the 5' end as sugar, base in round brackets, then linkage (d deoxyribose, r ribose, m 2'-O-methyl, p phosphodiester). Strings are as the collection lists them; they lack the last nucleoside at the 3' end of the tested compound. [moe] = 2'-O-(2-methoxyethyl) (MOE); [sp] = phosphorothioate linkage; [m5C] = 5-methylcytosine
Target: UBE3A-ATS
Assay: mouse, dose not given
Conditions: ASO

For “RNA1{[moe](T)[sp].[moe]([m5C])[sp].[moe]([m5C])[sp].[moe](T)[sp].[moe](T)[sp].d(T)[sp].d(A)[sp].d(G)[sp].d([m5C])[sp].d(A)[sp].d(T)[sp].d(T)[sp].d(T)[sp].d([m5C])[sp].d(T)[sp].[moe](A)[sp].[moe](T)[sp].[moe](T)[sp].[moe](A)}$$$$ (last 3' nucleoside missing)”, the 3 h FOB score was 6.5 score 0-7.
In the case of “RNA1{[moe](T)[sp].[moe]([m5C])p.[moe](A)p.[moe](A)[sp].d([m5C])[sp].d([m5C])[sp].d(A)[sp].d(A)[sp].d(T)[sp].d(T)[sp].d(T)[sp].d(G)[sp].[moe]([m5C])p.[moe](T)p.[moe](A)p.[moe](T)[sp].[moe](T)}$$$$ (last 3' nucleoside missing)”, the 3 h FOB score was 0.7 score 0-7.
For “RNA1{[moe](T)[sp].[moe]([m5C])p.[moe](A)p.[moe](A)p.[moe]([m5C])[sp].d([m5C])[sp].d(A)[sp].d(A)[sp].d(T)[sp].d(T)[sp].d(T)[sp].d(G)[sp].d([m5C])[sp].[moe](T)p.[moe](A)p.[moe](T)[sp].[moe](T)}$$$$ (last 3' nucleoside missing)”, the 3 h FOB score was 3 score 0-7.
“RNA1{[moe](T)[sp].[moe]([m5C])p.[moe](A)p.[moe](A)p.[moe]([m5C])p.[moe]([m5C])[sp].d(A)[sp].d(A)[sp].d(T)[sp].d(T)[sp].d(T)[sp].d(G)[sp].d([m5C])[sp].d(T)[sp].[moe](A)p.[moe](T)[sp].[moe](T)}$$$$ (last 3' nucleoside missing)” showed a 3 h FOB score of 3 score 0-7.
For “RNA1{[moe](T)[sp].[moe]([m5C])p.[moe](A)p.[moe](A)p.[moe]([m5C])p.d(T)[sp].d(A)[sp].d(T)[sp].d(T)[sp].d(T)[sp].d([m5C])[sp].d(T)[sp].d(A)[sp].d(T)[sp].d([m5C])[sp].[moe](A)p.[moe](A)p.[moe](G)[sp].[moe](G)}$$$$ (last 3' nucleoside missing)”, the 3 h FOB score was 0 score 0-7.
“RNA1{[moe](T)[sp].[moe]([m5C])p.[moe](A)p.[moe](A)p.[moe]([m5C])p.d([m5C])[sp].d(A)[sp].d(A)[sp].d(T)[sp].d(T)[sp].d(T)[sp].d(G)[sp].d([m5C])[sp].d(T)[sp].d(A)[sp].[moe](T)p.[moe](T)p.[moe]([m5C])[sp].[moe](A)}$$$$ (last 3' nucleoside missing)” gave a 3 h FOB score of 2 score 0-7.
Substance “RNA1{[moe](T)[sp].[moe]([m5C])p.[moe](A)p.[moe](G)[sp].d(T)[sp].d(T)[sp].d(A)[sp].d(G)[sp].d(G)[sp].d(T)[sp].d(T)[sp].d(A)[sp].[moe](G)p.[moe](T)p.[moe](G)p.[moe]([m5C])[sp].[moe](A)}$$$$ (last 3' nucleoside missing)” has a 3 h FOB score of 2.3 score 0-7.
In the case of “RNA1{[moe](T)[sp].[moe]([m5C])p.[moe](A)p.[moe](G)p.[moe](A)p.d(T)[sp].d(T)[sp].d([m5C])[sp].d([m5C])[sp].d(T)[sp].d(A)[sp].d(A)[sp].d(A)[sp].d(T)[sp].d(A)[sp].[moe]([m5C])p.[moe](G)p.[moe]([m5C])[sp].[moe](A)}$$$$ (last 3' nucleoside missing)”, the 3 h FOB score was 0 score 0-7.
For “RNA1{[moe](T)[sp].[moe]([m5C])p.[moe](A)p.[moe](G)p.[moe](T)[sp].d(T)[sp].d(A)[sp].d(G)[sp].d(G)[sp].d(T)[sp].d(T)[sp].d(A)[sp].d(G)[sp].[moe](T)p.[moe](G)p.[moe]([m5C])[sp].[moe](A)}$$$$ (last 3' nucleoside missing)”, the 3 h FOB score was 4.3 score 0-7.
“RNA1{[moe](T)[sp].[moe]([m5C])p.[moe](A)p.[moe](G)p.[moe](T)p.[moe](T)[sp].d(A)[sp].d(G)[sp].d(G)[sp].d(T)[sp].d(T)[sp].d(A)[sp].d(G)[sp].d(T)[sp].[moe](G)p.[moe]([m5C])[sp].[moe](A)}$$$$ (last 3' nucleoside missing)” was tested, and the 3 h FOB score was 3 score 0-7.
With “RNA1{[moe](T)[sp].[moe]([m5C])p.[moe](A)p.[moe](G)p.[moe](T)p.[moe](T)p.d(A)[sp].d(G)[sp].d(G)[sp].d(T)[sp].d(T)[sp].d(A)[sp].d(G)[sp].d(T)[sp].d(G)[sp].d([m5C])[sp].[moe](A)p.[moe]([m5C])[sp].[moe](A)}$$$$ (last 3' nucleoside missing)” the 3 h FOB score was 4.8 score 0-7.
In the case of “RNA1{[moe](T)[sp].[moe]([m5C])p.[moe](A)p.[moe](G)p.[moe](T)p.d(T)[sp].d(A)[sp].d(G)[sp].d(G)[sp].d(T)[sp].d(T)[sp].d(A)[sp].d(G)[sp].d(T)[sp].d(G)[sp].[moe]([m5C])p.[moe](A)p.[moe]([m5C])[sp].[moe](A)}$$$$ (last 3' nucleoside missing)”, the 3 h FOB score was 5 score 0-7.
Substance “RNA1{[moe](T)[sp].[moe]([m5C])p.[moe](A)p.[moe](G)p.[moe](T)p.d(T)[sp].d(A)[sp].d(G)[sp].d(T)[sp].d([m5C])[sp].d(A)[sp].d(G)[sp].d(G)[sp].d(T)[sp].d(T)[sp].[moe](A)p.[moe](G)p.[moe](G)[sp].[moe](G)}$$$$ (last 3' nucleoside missing)” has a 3 h FOB score of 4.2 score 0-7.
“RNA1{[moe](T)[sp].[moe]([m5C])p.[moe](A)p.[moe](G)p.[moe]([m5C])p.d(A)[sp].d([m5C])[sp].d(T)[sp].d(T)[sp].d(A)[sp].d(G)[sp].d(G)[sp].d(T)[sp].d(A)[sp].d(G)[sp].[moe](T)p.[moe](T)p.[moe]([m5C])[sp].[moe](A)}$$$$ (last 3' nucleoside missing)” showed a 3 h FOB score of 5 score 0-7.
Work on “RNA1{[moe](T)[sp].[moe]([m5C])p.[moe](A)p.[moe](G)p.d(T)[sp].d(T)[sp].d(A)[sp].d(G)[sp].d(G)[sp].d(T)[sp].d(T)[sp].d(A)[sp].d(G)[sp].d(T)[sp].[moe](G)p.[moe]([m5C])p.[moe](A)p.[moe]([m5C])[sp].[moe](A)}$$$$ (last 3' nucleoside missing)” yielded a 3 h FOB score of 4 score 0-7.
For “RNA1{[moe](T)[sp].[moe]([m5C])p.[moe](A)p.[moe](T)[sp].d([m5C])[sp].d(T)[sp].d([m5C])[sp].d(G)[sp].d(G)[sp].d(G)[sp].d(T)[sp].d(A)[sp].[moe](T)p.[moe](A)p.[moe](T)p.[moe](A)[sp].[moe](A)}$$$$ (last 3' nucleoside missing)”, the 3 h FOB score was 5.3 score 0-7.
“RNA1{[moe](T)[sp].[moe]([m5C])p.[moe](A)p.[moe](T)p.[moe](G)p.d(T)[sp].d(G)[sp].d([m5C])[sp].d(A)[sp].d(T)[sp].d(A)[sp].d([m5C])[sp].d([m5C])[sp].d([m5C])[sp].d(A)[sp].[moe](G)p.[moe](G)p.[moe](G)[sp].[moe](T)}$$$$ (last 3' nucleoside missing)” gave a 3 h FOB score of 1 score 0-7.
“RNA1{[moe](T)[sp].[moe]([m5C])p.[moe](A)p.[moe](T)p.[moe](T)p.d(A)[sp].d(T)[sp].d(T)[sp].d([m5C])[sp].d(T)[sp].d([m5C])[sp].d(T)[sp].d(A)[sp].d(G)[sp].d(T)[sp].[moe](G)p.[moe]([m5C])p.[moe]([m5C])[sp].[moe](T)}$$$$ (last 3' nucleoside missing)” was tested, and the 3 h FOB score was 1 score 0-7.
For “RNA1{[moe](T)[sp].[moe]([m5C])p.[moe](A)p.[moe](T)p.[moe]([m5C])[sp].d(T)[sp].d([m5C])[sp].d(G)[sp].d(G)[sp].d(G)[sp].d(T)[sp].d(A)[sp].d(T)[sp].[moe](A)p.[moe](T)p.[moe](A)[sp].[moe](A)}$$$$ (last 3' nucleoside missing)”, the 3 h FOB score was 3 score 0-7.
Substance “RNA1{[moe](T)[sp].[moe]([m5C])p.[moe](A)p.[moe](T)p.[moe]([m5C])p.[moe](T)[sp].d([m5C])[sp].d(G)[sp].d(G)[sp].d(G)[sp].d(T)[sp].d(A)[sp].d(T)[sp].d(A)[sp].[moe](T)p.[moe](A)[sp].[moe](A)}$$$$ (last 3' nucleoside missing)” has a 3 h FOB score of 2.3 score 0-7.
“RNA1{[moe](T)[sp].[moe]([m5C])p.[moe](A)p.[moe](T)p.[moe]([m5C])p.[moe](T)p.d([m5C])[sp].d(G)[sp].d(G)[sp].d(G)[sp].d(T)[sp].d(A)[sp].d(T)[sp].d(A)[sp].d(T)[sp].d(A)[sp].[moe](A)p.[moe](A)[sp].[moe](T)}$$$$ (last 3' nucleoside missing)” was tested, and the 3 h FOB score was 2 score 0-7.
Work on “RNA1{[moe](T)[sp].[moe]([m5C])p.[moe](A)p.[moe](T)p.[moe]([m5C])p.d(T)[sp].d([m5C])[sp].d(G)[sp].d(G)[sp].d(G)[sp].d(T)[sp].d(A)[sp].d(T)[sp].d(A)[sp].d(T)[sp].[moe](A)p.[moe](A)p.[moe](A)[sp].[moe](T)}$$$$ (last 3' nucleoside missing)” yielded a 3 h FOB score of 3.3 score 0-7.
“RNA1{[moe](T)[sp].[moe]([m5C])p.[moe](A)p.[moe](T)p.d([m5C])[sp].d(T)[sp].d([m5C])[sp].d(G)[sp].d(G)[sp].d(G)[sp].d(T)[sp].d(A)[sp].d(T)[sp].d(A)[sp].[moe](T)p.[moe](A)p.[moe](A)p.[moe](A)[sp].[moe](T)}$$$$ (last 3' nucleoside missing)” showed a 3 h FOB score of 4 score 0-7.
Substance “RNA1{[moe](T)[sp].[moe]([m5C])p.[moe](A)p.[moe]([m5C])[sp].d([m5C])[sp].d(A)[sp].d(T)[sp].d(T)[sp].d(T)[sp].d(T)[sp].d(G)[sp].d(A)[sp].[moe]([m5C])p.[moe]([m5C])p.[moe](T)p.[moe](T)[sp].[moe]([m5C])}$$$$ (last 3' nucleoside missing)” has a 3 h FOB score of 0.3 score 0-7.
Substance “RNA1{[moe](T)[sp].[moe]([m5C])p.[moe](A)p.[moe]([m5C])p.[moe](A)p.d(T)[sp].d(T)[sp].d(A)[sp].d([m5C])[sp].d([m5C])[sp].d([m5C])[sp].d(A)[sp].d(T)[sp].d([m5C])[sp].d([m5C])[sp].[moe](G)p.[moe](T)p.[moe](T)[sp].[moe]([m5C])}$$$$ (last 3' nucleoside missing)” has a 3 h FOB score of 0 score 0-7.
Work on “RNA1{[moe](T)[sp].[moe]([m5C])p.[moe](A)p.[moe]([m5C])p.[moe](T)p.d(G)[sp].d(A)[sp].d(G)[sp].d(T)[sp].d(T)[sp].d(T)[sp].d(T)[sp].d(T)[sp].d(G)[sp].d(T)[sp].[moe](A)p.[moe](G)p.[moe](T)[sp].[moe](T)}$$$$ (last 3' nucleoside missing)” yielded a 3 h FOB score of 3.7 score 0-7.
“RNA1{[moe](T)[sp].[moe]([m5C])p.[moe](A)p.[moe]([m5C])p.[moe]([m5C])[sp].d(A)[sp].d(T)[sp].d(T)[sp].d(T)[sp].d(T)[sp].d(G)[sp].d(A)[sp].d([m5C])[sp].[moe]([m5C])p.[moe](T)p.[moe](T)[sp].[moe]([m5C])}$$$$ (last 3' nucleoside missing)” was tested, and the 3 h FOB score was 2 score 0-7.

From the OligoGym collection
